Biological target: T1, BTK (Homo sapiens, UniProt Q06187)
T1 construct: endogenous in cells; host or cells: TMD-8 cells
Test: BTK degradation in TMD-8 cells, HTRF assay after 6 h treatment
Assay type: cell-based
Details: for DC50: IC50 (DC50) of BTK degradation; for Dmax: TMD8, maximum percentage of inhibition (degradation)
How it was run: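 Remaining BTK was quantified by HTRF in lysates of TMD-8 cells after 6 h exposure to an 8-point, 6-fold compound series (500× stocks in DMSO starting at 1 mM; 0.2% DMSO). Lysis 30 min, antibodies overnight at room temperature, ratio read at 665/620 nm; DC50 fitted with a four-parameter logistic equation.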

T1 sequence (Q06187 whole entry): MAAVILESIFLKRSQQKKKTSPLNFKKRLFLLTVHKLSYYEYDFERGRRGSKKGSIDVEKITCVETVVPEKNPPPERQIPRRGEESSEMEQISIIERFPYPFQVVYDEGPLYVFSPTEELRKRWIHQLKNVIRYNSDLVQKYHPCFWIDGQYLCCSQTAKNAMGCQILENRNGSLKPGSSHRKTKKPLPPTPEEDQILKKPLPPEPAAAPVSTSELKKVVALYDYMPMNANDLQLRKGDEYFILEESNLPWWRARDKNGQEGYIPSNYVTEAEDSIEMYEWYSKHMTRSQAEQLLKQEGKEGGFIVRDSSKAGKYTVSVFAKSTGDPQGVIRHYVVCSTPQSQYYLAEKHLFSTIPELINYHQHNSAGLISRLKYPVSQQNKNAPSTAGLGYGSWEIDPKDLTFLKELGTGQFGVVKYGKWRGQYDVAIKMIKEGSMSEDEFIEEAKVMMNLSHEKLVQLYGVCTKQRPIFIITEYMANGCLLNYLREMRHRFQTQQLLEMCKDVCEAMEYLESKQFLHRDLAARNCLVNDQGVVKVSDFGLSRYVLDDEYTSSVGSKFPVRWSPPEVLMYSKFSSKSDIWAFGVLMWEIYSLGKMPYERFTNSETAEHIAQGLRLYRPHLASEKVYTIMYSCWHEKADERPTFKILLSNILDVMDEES

Cc1cc(-c2n[nH]c3ncc(-c4ccc(C5CCN(CC6CCN(c7ccc(N8CCC(=O)NC8=O)cc7)CC6)CC5)nc4)cc23)ccc1[C@@H](C)NC(=O)c1noc(C(C)(C)C)n1 [Example 71, (R)-5-(tert-butyl)-N-(1-(4-(5-(6-(1-((1-(4-(2,4-dioxotetrahydropyrimidin-1(2H)-yl)phenyl)piperidin-4-yl)methyl)piperidin-4-yl)pyridin-3-yl)-1H-pyrazolo[3,4-b]pyridin-3-yl)-2-methylphenyl)ethyl)-1,2,4-oxadiazole-3-carboxamide] showed a DC50 of 4.03 nM.

Molecule Cc1cc(-c2n[nH]c3ncc(-c4ccc(N5CCN(CC6CCN(c7ccc(N8CCC(=O)NC8=O)cc7)CC6)CC5)cc4)cc23)ccc1[C@@H](C)NC(=O)c1noc(C(C)(C)C)n1 [Example 37, (R)-5-(tert-butyl)-N-(1-(4-(5-(4-(4-((1-(4-(2,4-dioxotetrahydropyrimidin-1(2H)-yl)phenyl)piperidin-4-yl)methyl)piperazin-1-yl)phenyl)-1H-pyrazolo[3,4-b]pyridin-3-yl)-2-methylphenyl)ethyl)-1,2,4-oxadiazole-3-carboxamide] has a DC50 of 2.52 nM and a Dmax of 93.4%.

In the case of Cc1cc(-c2n[nH]c3ncc(-c4ccc(N5CCN(CC6CCN(c7ccc(N8CCC(=O)NC8=O)cc7)CC6)CC5)c(C)c4)cc23)ccc1[C@@H](C)NC(=O)c1noc(C(C)(C)C)n1 [Example 102, (R)-5-(tert-butyl)-N-(1-(4-(5-(4-(4-((1-(4-(2,4-dioxotetrahydropyrimidin-1(2H)-yl)phenyl)piperidin-4-yl)methyl)piperazin-1-yl)-3-methylphenyl)-1H-pyrazolo[3,4-b]pyridin-3-yl)-2-methylphenyl)ethyl)-1,2,4-oxadiazole-3-carboxamide], the DC50 is reported as 9.72 nM.

Work on Cc1cc(-c2n[nH]c3ncc(-c4ccc(C5CCN(CCc6ccc(C7CCC(=O)NC7=O)c7ccccc67)CC5)cc4)cc23)ccc1CNC(=O)c1nc(C(C)(C)C)no1 (stereo not shown) [Example 25, 3-(tert-butyl)-N-(4-(5-(4-(1-(2-(4-(2,6-dioxopiperidin-3-yl)naphthalen-1-yl)ethyl)piperidin-4-yl)phenyl)-1H-pyrazolo[3,4-b]pyridin-3-yl)-2-methylbenzyl)-1,2,4-oxadiazole-5-carboxamide] yielded a DC50 of 8.16 nM and a Dmax of 96.7%.

For Cc1cc(-c2n[nH]c3ncc(-c4ccc(C5CCN(CCCOc6ccc(C7CCC(=O)NC7=O)c(C)c6)CC5)cc4)cc23)ccc1CNC(=O)c1nc(C(C)(C)C)no1 (stereo not shown) [Example 27, 3-(tert-butyl)-N-(4-(5-(4-(1-(3-(4-(2,6-dioxopiperidin-3-yl)-3-methylphenoxy)propyl)piperidin-4-yl)phenyl)-1H-pyrazolo[3,4-b]pyridin-3-yl)-2-methylbenzyl)-1,2,4-oxadiazole-5-carboxamide], the DC50 was 9.25 nM and the Dmax was 95.3%.

Work on Cc1cc(-c2n[nH]c3ncc(-c4ccc(N5CCN(CC6CCN(c7ccc(N8CCC(=O)NC8=O)cc7C)CC6)CC5)cc4)cc23)ccc1[C@@H](C)NC(=O)c1noc(C(C)(C)C)n1 [Example 135, (R)-5-(tert-butyl)-N-(1-(4-(5-(4-(4-((1-(4-(2,4-dioxotetrahydropyrimidin-1(2H)-yl)-2-methylphenyl)piperidin-4-yl)methyl)piperazin-1-yl)phenyl)-1H-pyrazolo[3,4-b]pyridin-3-yl)-2-methylphenyl)ethyl)-1,2,4-oxadiazole-3-carboxamide] yielded a DC50 of 12.7 nM.

Cc1cc(-c2n[nH]c3ncc(-c4ccc(CCN5CCC(c6ccc([C@H]7CCC(=O)NC7=O)cc6)CC5)cc4)cc23)ccc1CNC(=O)c1nc(C(C)(C)C)no1 [Example 89, (R)-3-(tert-butyl)-N-(4-(5-(4-(2-(4-(4-(2,6-dioxopiperidin-3-yl)phenyl)piperidin-1-yl)ethyl)phenyl)-1H-pyrazolo[3,4-b]pyridin-3-yl)-2-methylbenzyl)-1,2,4-oxadiazole-5-carboxamide] was tested, and the DC50 was 0.635 nM.

Cc1cc(-c2n[nH]c3ncc(-c4ccc(N5CCN(CCC6CCN(c7ccc(N8CCC(=O)NC8=O)c(Cl)c7)CC6)CC5)cc4)cc23)ccc1[C@@H](C)NC(=O)c1ccc(C(C)(C)O)cc1F [Example 104, (R)—N-(1-(4-(5-(4-(4-(2-(1-(3-chloro-4-(2,4-dioxotetrahydropyrimidin-1(2H)-yl)phenyl)piperidin-4-yl)ethyl)piperazin-1-yl)phenyl)-1H-pyrazolo[3,4-b]pyridin-3-yl)-2-methylphenyl)ethyl)-2-fluoro-4-(2-hydroxypropan-2-yl)benzamide] was tested, and the DC50 was greater than 2000 nM.

Cc1cc(-c2n[nH]c3ncc(-c4ccc(N5CCC(COc6ccc(OC7CCC(=O)NC7=O)cc6)CC5)cc4)cc23)ccc1[C@@H](C)NC(=O)c1noc(C(C)(C)C)n1 (stereo partly drawn) [Example 198, 5-(tert-butyl)-N-((1R)-1-(4-(5-(4-(4-((4-((2,6-dioxopiperidin-3-yl)oxy)phenoxy)methyl)piperidin-1-yl)phenyl)-1H-pyrazolo[3,4-b]pyridin-3-yl)-2-methylphenyl)ethyl)-1,2,4-oxadiazole-3-carboxamide] showed a DC50 of 91.4 nM.

With Cc1cc(-c2n[nH]c3ncc(-c4ccc(N5CCN(CC6CCN(c7ccc(N8CCC(=O)NC8=O)cn7)CC6)CC5)cc4)cc23)ccc1[C@@H](C)NC(=O)c1noc(C(C)(C)C)n1 [Example 124, (R)-5-(tert-butyl)-N-(1-(4-(5-(4-(4-((1-(5-(2,4-dioxotetrahydropyrimidin-1(2H)-yl)pyridin-2-yl)piperidin-4-yl)methyl)piperazin-1-yl)phenyl)-1H-pyrazolo[3,4-b]pyridin-3-yl)-2-methylphenyl)ethyl)-1,2,4-oxadiazole-3-carboxamide] the DC50 was 1.42 nM.

COc1cc(N2CCC(CCN3CCC(c4ccc(-c5cnc6[nH]nc(-c7ccc(CNC(=O)c8nc(C(C)(C)C)no8)c(C)c7)c6c5)cc4)CC3)CC2)ccc1N1CCC(=O)NC1=O [Example 28, 3-(tert-butyl)-N-(4-(5-(4-(1-(2-(1-(4-(2,4-dioxotetrahydropyrimidin-1(2H)-yl)-3-methoxyphenyl)piperidin-4-yl)ethyl)piperidin-4-yl)phenyl)-1H-pyrazolo[3,4-b]pyridin-3-yl)-2-methylbenzyl)-1,2,4-oxadiazole-5-carboxamide] gave a DC50 of 2.54 nM and a Dmax of 97.1%.

Cc1cc(-c2n[nH]c3ncc(-c4ccc(C5CCN(CCc6ccc([C@H]7CCC(=O)NC7=O)cc6)CC5)nc4)cc23)ccc1[C@@H](C)NC(=O)c1noc(C(C)(C)C)n1 [Example 152, 5-(tert-butyl)-N—((R)-1-(4-(5-(6-(1-(4-((R)-2,6-dioxopiperidin-3-yl)phenethyl)piperidin-4-yl)pyridin-3-yl)-1H-pyrazolo[3,4-b]pyridin-3-yl)-2-methylphenyl)ethyl)-1,2,4-oxadiazole-3-carboxamide] showed a DC50 of 1.03 nM.

In the case of Cc1cc(-c2n[nH]c3ncc(-c4ccc(N5CCN(CCc6ccc7c(c6)C[C@@]6(CC(=O)NC6=O)C7)CC5)cc4)cc23)ccc1[C@@H](C)NC(=O)c1nc(C(C)(C)C)no1 [Example 207, 3-(tert-butyl)-N—((R)-1-(4-(5-(4-(4-(2-((R)-2′,5′-dioxo-1,3-dihydrospiro[indene-2,3′-pyrrolidin]-5-yl)ethyl)piperazin-1-yl)phenyl)-1H-pyrazolo[3,4-b]pyridin-3-yl)-2-methylphenyl)ethyl)-1,2,4-oxadiazole-5-carboxamide], the DC50 is reported as 54 nM.

C[C@@H](NC(=O)c1noc(C(C)(C)C)n1)c1ccc(-c2n[nH]c3ncc(-c4ccc(N5CCN(CC6CCN(c7ccc(N8CCC(=O)NC8=O)cc7)CC6)CC5)nc4)cc23)cc1CO [Example 178, (R)-5-(tert-butyl)-N-(1-(4-(5-(6-(4-((1-(4-(2,4-dioxotetrahydropyrimidin-1(2H)-yl)phenyl)piperidin-4-yl)methyl)piperazin-1-yl)pyridin-3-yl)-1H-pyrazolo[3,4-b]pyridin-3-yl)-2-(hydroxymethyl)phenyl)ethyl)-1,2,4-oxadiazole-3-carboxamide] was tested, and the DC50 was 6.81 nM.

Cc1cc(-c2n[nH]c3ncc(-c4ccc(N5CCN(CC6CCN(c7ccc(N8CCC(=O)NC8=O)cc7)CC6)CC5)cc4)cc23)ccc1CNC(=O)c1cnc(C(C)(C)C)s1 [Example 94, 2-(tert-butyl)-N-(4-(5-(4-(4-((1-(4-(2,4-dioxotetrahydropyrimidin-1(2H)-yl)phenyl)piperidin-4-yl)methyl)piperazin-1-yl)phenyl)-1H-pyrazolo[3,4-b]pyridin-3-yl)-2-methylbenzyl)thiazole-5-carboxamide] gave a DC50 of 13.1 nM.

Cc1cc(-c2n[nH]c3ncc(-c4ccc(N5CCN(CCc6ccc(C7CCC(=O)NC7=O)cc6)CC5)cc4)cc23)ccc1CNC(=O)c1cn(C(C)(C)C)nn1 (stereo not shown) [Example 108, 1-(tert-butyl)-N-(4-(5-(4-(4-(4-(2,6-dioxopiperidin-3-yl)phenethyl)piperazin-1-yl)phenyl)-1H-pyrazolo[3,4-b]pyridin-3-yl)-2-methylbenzyl)-1H-1,2,3-triazole-4-carboxamide] showed a DC50 of 4.13 nM.

Molecule Cc1cc(-c2n[nH]c3ncc(-c4ccc(N5CCN(CC6CCN(c7ccc(N8CCC(=O)NC8=O)cc7)CC6)CC5)c(F)c4)cc23)ccc1[C@@H](C)NC(=O)c1noc(C(C)(C)C)n1 [Example 97, (R)-5-(tert-butyl)-N-(1-(4-(5-(4-(4-((1-(4-(2,4-dioxotetrahydropyrimidin-1(2H)-yl)phenyl)piperidin-4-yl)methyl)piperazin-1-yl)-3-fluorophenyl)-1H-pyrazolo[3,4-b]pyridin-3-yl)-2-methylphenyl)ethyl)-1,2,4-oxadiazole-3-carboxamide] has a DC50 of 5.8 nM.

Work on Cc1nc(CCN2CCN(c3ccc(-c4cnc5[nH]nc(-c6ccc([C@@H](C)NC(=O)c7noc(C(C)(C)C)n7)c(C)c6F)c5c4)cc3)CC2)ccc1C1CCC(=O)NC1=O (stereo partly drawn) [Example 166, 5-(tert-butyl)-N-((1R)-1-(4-(5-(4-(4-(2-(5-(2,6-dioxopiperidin-3-yl)-6-methylpyridin-2-yl)ethyl)piperazin-1-yl)phenyl)-1H-pyrazolo[3,4-b]pyridin-3-yl)-3-fluoro-2-methylphenyl)ethyl)-1,2,4-oxadiazole-3-carboxamide] yielded a DC50 of 3.07 nM.
